In patent publication US8849577B2, “Methods of identifying biochemical pathways” (Metabolon, Inc., priority 2006, dated 2014):
“Also recorded” adds a separate entry of the source.

Legend:
Format in all cases: cell-based, human
HepG2 = test: Metabolomic analysis of test compounds in HepG2 (hepatocyte) cultures; details: Hepatocytes, 30 μM, vs DMSO; for number of compounds affected, # decreased / number of compounds affected, # increased: p < 0.01
Protocol: (§1) The cell cultures used in this example were performed according to standard protocols with the cells in 10% FCS. […] The adipocytes were human and fully differentiated.
(§2) The target of the agent is not present in the cell cultures assayed, thus the changed compounds for each culture represent off-target effects, and therefore, the number of changed compounds can be used to generate a score that can be used as one criteria to rank the test compounds.

adipocyte cells = test: Metabolomic analysis of test compounds in adipocyte cultures; details: Primary Adipocytes, 30 μM, vs DMSO; for number of compounds affected, # decreased / number of compounds affected, # increased: p < 0.01
Protocol: as §1, §2

preadipocyte cells = test: Comparative metabolomic analysis of PPAR activators in preadipocyte cells; details: 3 hours treatment
Protocol: The cell used in this assay were preadipocyte cells from a human with a BMI of 23.29. The cells were plated at 1 million per well in 6-well plates. Eight cultures were used for each experimental group. The cells were washed with basal medium (1 ml/well) and treated with compounds in 1 ml of basal medium for 3 hours. After treatment, the cells were then washed with PBS (1 ml), two times and then trypsinized with 300 μl for 5 minutes at 37 degrees. One ml of PM-1 was then added per well to neutralized the trypsin and the cells were collected in 1.5 ml eppendorf tube. The cells were then pelleted by centrifugation (280×g) and the pellets were washed with PBS (1 ml). The cell pellets were then frozen at −80 degrees.

| Structure (SMILES) | Ratio Drug/DMSO: 3-phospho-I-serine (preadipocyte cells) | Ratio Drug/DMSO: Isobar-17-includes-arginine-N-alpha-acetyl-ornithine (preadipocyte cells) | Ratio Drug/DMSO: Isobar-22-includes-glutamic acid-O-acetyl-L-serine (preadipocyte cells) | Ratio Drug/DMSO: Isobar-28-includes-L-threonine-L-allothreonine-L-homoserine (preadipocyte cells) | Ratio Drug/DMSO: L-alpha-glycerophosphorylcholine (preadipocyte cells) | Ratio Drug/DMSO: N-acetyl-D-galactosamine (preadipocyte cells) | Ratio Drug/DMSO: adenosine-5-monophosphate (preadipocyte cells) | Ratio Drug/DMSO: alanine (preadipocyte cells) | Ratio Drug/DMSO: carnitine (preadipocyte cells) | Ratio Drug/DMSO: citric acid (preadipocyte cells) | Ratio Drug/DMSO: gly-gly (preadipocyte cells) | Ratio Drug/DMSO: glycerol (preadipocyte cells) | Ratio Drug/DMSO: guanosine (preadipocyte cells) | Ratio Drug/DMSO: hypoxanthine (preadipocyte cells) | Ratio Drug/DMSO: inosine (preadipocyte cells) | Ratio Drug/DMSO: n-hexadecanoic acid (preadipocyte cells) | Ratio Drug/DMSO: octadecanoic acid (preadipocyte cells) | Ratio Drug/DMSO: pantothenic acid (preadipocyte cells) | Ratio Drug/DMSO: phosphoenolpyruvate (preadipocyte cells) | Ratio Drug/DMSO: serine (preadipocyte cells) | other results |
| --- | --- | --- | --- | --- | --- | --- | --- | --- | --- | --- | --- | --- | --- | --- | --- | --- | --- | --- | --- | --- | --- |
| COC(=O)N[C@H](C(=O)N[C@@H](Cc1ccccc1)[C@@H](O)CN(Cc1ccc(-c2ccccn2)cc1)NC(=O)[C@@H](NC(=O)OC)C(C)(C)C)C(C)(C)C [ATV] | – | – | – | – | – | – | – | – | – | – | – | – | – | – | – | – | – | – | – | – | number of compounds affected, Total p < 0.01 (HepG2): 71; number of compounds affected, # decreased (HepG2): 55; number of compounds affected, # increased (HepG2): 16; number of compounds affected, Total p < 0.01 (adipocyte cells): 87; number of compounds affected, # decreased (adipocyte cells): 55; number of compounds affected, # increased (adipocyte cells): 32 |
| CC1(COc2ccc(CC3SC(=O)NC3=O)cc2)CCCCC1 (stereo not shown) [Ciglitazone] | 0.91 | 0.87 | 0.99 | 0.72 | 1.81 | 0.36 | 1.09 | 0.91 | 0.90 | 0.86 | 1.36 | 0.93 | 1.55 | 1.76 | 2.25 | 1.05 | 1.05 | 1.10 | 0.76 | 0.98 | Ratio Drug/DMSO: aspartate (preadipocyte cells): 1.29; Ratio Drug/DMSO: gamma-L-glutamyl-L-glutamin (preadipocyte cells): 0.73; Ratio Drug/DMSO: glutamine (preadipocyte cells): 0.78; Ratio Drug/DMSO: o-phosphoethanolamine (preadipocyte cells): 5.42; Ratio Drug/DMSO: oxidized-glutathione (preadipocyte cells): 0.77; Ratio Drug/DMSO: sn-glycerol-3-phosphate (preadipocyte cells): 1.53; Ratio Drug/DMSO: threonine (preadipocyte cells): 0.84; Ratio Drug/DMSO: tryptophan (preadipocyte cells): 0.91 |
| CC(C)(Sc1ccc(CCN(CCCCC2CCCCC2)C(=O)NC2CCCCC2)cc1)C(=O)O [GW7647] | 0.89 | 0.97 | 0.86 | 0.82 | 1.31 | 0.98 | 1.41 | 0.95 | 0.83 | 1.06 | 1.12 | 1.14 | 1.22 | 1.89 | 1.89 | 1.02 | 1.02 | 0.96 | 0.91 | 1.05 | Ratio Drug/DMSO: sn-glycerol-3-phosphate (preadipocyte cells): 1.43; Ratio Drug/DMSO: tryptophan (preadipocyte cells): 1.06; metabolite change relative to DMSO control (preadipocyte cells): increase in glycerol; also recorded: more carnitine is being utilized to shuffle FA into the mitochondria and hence, levels decrease |
| Cc1cccc(C)c1OCC(=O)N[C@@H](Cc1ccccc1)[C@@H](O)C[C@H](Cc1ccccc1)NC(=O)[C@H](C(C)C)N1CCCNC1=O [LPV] | – | – | – | – | – | – | – | – | – | – | – | – | – | – | – | – | – | – | – | – | number of compounds affected, Total p < 0.01 (HepG2): 131; number of compounds affected, # decreased (HepG2): 27; number of compounds affected, # increased (HepG2): 104; number of compounds affected, Total p < 0.01 (adipocyte cells): 99; number of compounds affected, # decreased (adipocyte cells): 46; number of compounds affected, # increased (adipocyte cells): 53 |
| Cc1c(C)c2c(c(C)c1O)CCC(C)(COc1ccc(CC3SC(=O)NC3=O)cc1)O2 (stereo not shown) [Troglitazone, troglitazone] | 0.77 | 0.82 | 0.92 | 0.63 | 1.24 | 0.91 | 0.95 | 0.86 | 0.92 | 0.77 | 1.42 | 1.08 | 0.98 | 1.63 | 1.58 | 1.17 | 1.18 | 1.33 | 0.85 | 0.86 | Ratio Drug/DMSO: aspartate (preadipocyte cells): 2.06; Ratio Drug/DMSO: gamma-L-glutamyl-L-glutamin (preadipocyte cells): 0.64; Ratio Drug/DMSO: glutamine (preadipocyte cells): 0.76; Ratio Drug/DMSO: o-phosphoethanolamine (preadipocyte cells): 1.50; Ratio Drug/DMSO: oxidized-glutathione (preadipocyte cells): 0.77; Ratio Drug/DMSO: sn-glycerol-3-phosphate (preadipocyte cells): 1.42; Ratio Drug/DMSO: threonine (preadipocyte cells): 0.83; Ratio Drug/DMSO: tryptophan (preadipocyte cells): 0.98 |
